# Source: article PMC3090406, “Crystal Structures of Two Aminoglycoside Kinases Bound with a Eukaryotic Protein Kinase Inhibitor” (PLoS ONE, 2011)
# Target: APH(9)-Ia (Legionella pneumophila, UniProt O06916)
# Assay: biochemical
# Chain of APH(9)-Ia (O06916 1-331): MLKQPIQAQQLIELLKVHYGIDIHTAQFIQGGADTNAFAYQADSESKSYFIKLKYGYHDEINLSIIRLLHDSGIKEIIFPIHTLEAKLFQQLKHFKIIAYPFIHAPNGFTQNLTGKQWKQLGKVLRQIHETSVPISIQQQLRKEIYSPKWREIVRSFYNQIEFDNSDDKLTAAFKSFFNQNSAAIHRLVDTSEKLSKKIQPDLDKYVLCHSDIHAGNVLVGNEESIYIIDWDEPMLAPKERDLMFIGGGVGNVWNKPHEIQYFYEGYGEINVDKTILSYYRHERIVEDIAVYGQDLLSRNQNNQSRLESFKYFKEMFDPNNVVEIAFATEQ
structure (smiles),measurement,value
"NCCNS(=O)(=O)c1ccc(Cl)c2ccncc12 [CKI-7, N-(2-aminoethyl)-5-chloro-isoquinoline-8-sulfonamide]",Ki,159 ± 11 µM
